Experimental data taken from US12428406B2 (PMV Pharmaceuticals, Inc., priority 2019, dated 2025).

Molecular target: T1, p53 Y220C (Homo sapiens, UniProt P04637, Y220C)
T1 construct: The recombinant protein was a truncation mutant containing only amino acids 94-312 of p53; made in house; host or cells: E. coli
Experiment: In vitro DNA binding activity assay (HTRF / TR-FRET): stabilization of p53 Y220C and increase of its DNA binding activity
Type: biochemical
Details: recombinant His-tagged p53 Y220C DNA binding domain (aa 94-312), biotin-labeled consensus DNA, incubated at 27° C. or 29° C. for 60 min
In short: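 Stabilization of the mutant is inferred from increased binding of His-tagged p53 Y220C to a biotin-labeled consensus DNA, detected by HTRF with europium-streptavidin and APC-anti-His antibody. The concentration giving a 50% rise over compound-free binding is reported as SC150.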

T1 sequence (P04637 94-312, change not shown): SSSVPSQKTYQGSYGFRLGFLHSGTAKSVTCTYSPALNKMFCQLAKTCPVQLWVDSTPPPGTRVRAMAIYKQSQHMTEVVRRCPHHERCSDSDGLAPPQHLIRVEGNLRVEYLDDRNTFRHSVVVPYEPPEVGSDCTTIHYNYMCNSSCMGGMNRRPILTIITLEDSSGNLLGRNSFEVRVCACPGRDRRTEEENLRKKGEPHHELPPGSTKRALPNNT

| Compound | SC150 (concentration of the compound required to increase the DNA binding activity by 50%) |
| --- | --- |
| CS(=O)(=O)c1ccc(NCC#Cc2cc3c(N[C@H]4CC[C@@H](N5CC6(COC6)C5)CC4)cccc3n2CC(F)(F)F)c(OCC(F)(F)F)c1 [Compound 232A, 2-(3-{[4-methane-sulfonyl-2-(2,2,2-trifluoro-ethoxy)phenyl]amino}prop-1-yn-1-yl)-N-[(1S,4S)-4-{2-oxa-6-azaspiro[3.3]heptan-6-yl}cyclohexyl]-1-(2,2,2-trifluoroethyl)-1H-indol-4-amine] | + (+ = 0 μM ≤ SC150 < 0.05 μM) |
| CS(=O)(=O)c1ccc(OCC#Cc2cc3c(N[C@H]4CC[C@@H](N5CC6(COC6)C5)CC4)cccc3n2CC(F)(F)F)c(N)c1 [Compound 233A, 2-[3-(2-amino-4-methanesulfonyl-phenoxy)prop-1-yn-1-yl]-N-[(1S,4S)-4-{2-oxa-6-azaspiro[3.3]heptan-6-yl}cyclohexyl]-1-(2,2,2-trifluoroethyl)-1H-indol-4-amine] | ++ (++ = 0.05 μM ≤ SC150 < 0.1 μM) |
| CCOc1cc(S(C)(=O)=O)ccc1NCC#Cc1cc2c(N[C@H]3CC[C@H](N4CC5(COC5)C4)CC3)cccc2n1CC(F)(F)F [Compound 234A, 2-{3-[(2-ethoxy-4-methanesulfonylphenyl)amino]prop-1-yn-1-yl}-N-[(1R,4R)-4-{2-oxa-6-azaspiro[3.3]heptan-6-yl}cyclohexyl]-1-(2,2,2-trifluoroethyl)-1H-indol-4-amine] | + (+ = 0 μM ≤ SC150 < 0.05 μM) |
| CCOc1cc(S(C)(=O)=O)ccc1NCC#Cc1cc2c(N[C@H]3CC[C@@H](N4CC5(COC5)C4)CC3)cccc2n1CC(F)(F)F [Compound 235A, 2-{3-[(2-ethoxy-4-methanesulfonyl-phenyl)amino]prop-1-yn-1-yl}-N-[(1S,4S)-4-{2-oxa-6-azaspiro[3.3]heptan-6-yl}cyclo-hexyl]-1-(2,2,2-trifluoroethyl)-1H-indol-4-amine] | + (+ = 0 μM ≤ SC150 < 0.05 μM) |
| CNC(=O)c1ccc(NCC#Cc2cc3c(N[C@H]4CC[C@H](N5CC6(COC6)C5)CC4)cccc3n2CC(F)(F)F)c(OCCOC)c1 [Compound 236A, 3-(2-methoxyethoxy)-N-methyl-4-{[3-(4-{[(1R,4R)-4-{2-oxa-6-azaspiro[3.3]heptan-6-yl}cyclohexyl]amino}-1-(2,2,2-trifluoroethyl)-1H-indol-2-yl)prop-2-yn-1-yl]amino} benzamide] | + (+ = 0 μM ≤ SC150 < 0.05 μM) |

The remaining lines, values ahead:

| SC150 (concentration of the compound required to increase the DNA binding activity by 50%) | Compound |
| --- | --- |
| + (+ = 0 μM ≤ SC150 < 0.05 μM) | CNC(=O)c1ccc(NCC#Cc2cc3c(N[C@H]4CC[C@@H](N5CC6(COC6)C5)CC4)cccc3n2CC(F)(F)F)c(OCCOC)c1 [Compound 237A, 3-(2-methoxyethoxy)-N-methyl-4-{[3-(4-{[(1S,4S)-4-{2-oxa-6-azaspiro[3.3]heptan-6-yl}cyclohexyl]amino}-1-(2,2,2-trifluoroethyl)-1H-indol-2-yl)prop-2-yn-1-yl]amino} benzamide] |
| + (+ = 0 μM ≤ SC150 < 0.05 μM) | CCNC(=O)c1ccc(NCC#Cc2cc3c(N[C@H]4CC[C@@H](N5CC6(COC6)C5)CC4)cccc3n2CC(F)(F)F)c(OC)c1 [Compound 238A, N-ethyl-3-methoxy-4-{[3-(4-{[(1R,4R)-4-{2-oxa-6-azaspiro[3.3]heptan-6-yl}cyclohexyl]amino}-1-(2,2,2-trifluoro-ethyl)-1H-indol-2-yl)prop-2-yn-1-yl]amino} benzamide] |
| + (+ = 0 μM ≤ SC150 < 0.05 μM) | CNC(=O)c1ccc(NCC#Cc2cc3c(N[C@H]4CC[C@H](N5CC6(COC6)C5)CC4)cccc3n2CC(F)(F)F)c(OCCF)c1 [Compound 240A, 3-(2-fluoroethoxy)-N-methyl-4-{[3-(4-{[(1R,4R)-4-{2-oxa-6-azaspiro[3.3]heptan-6-yl}cyclohexyl]amino}-1-(2,2,2-trifluoroethyl)-1H-indol-2-yl)prop-2-yn-1-yl]amino}benzamide] |
